Assays:
[1] = system: tomato spotted wilt virus (TSWV); assay: Bell pepper drench trial (Example 7); type: in vivo, bell pepper (Capsicum annum L.); settings: for Percent control of incidence of TSWV in bell peppers: Abbott's formula; for Percent incidence TSWV in bell peppers: drench, prothioconazole 0.0084 g ai/plant, imidacloprid 0.01 g/plant
Description: Cultivation—A trial on bell pepper (Capsicum annum L.) was initiated in Molino, Fla. to see if drenches of prothioconazole alone and in combination with the insecticide imidacloprid could control TSWV in pepper. Bell pepper plants were transplanted on April 11 into 9.1 meter plots with three replications as in Example 6. Treatments were applied as a drench in 40 ml water per plant (7 days after transplanting) on April 18 as in Example 6.
Treatments— • Untreated—no in-furrow treatment. • Imidacloprid—imidacloprid@0.01 g imidacloprid/plant. • Prothioconazole—prothioconazole@0.0084 g prothioconazole/plant. • Prothioconazole+Imidacloprid—prothioconazole@0.0084 g active ingredient/plant+imidacloprid@0.01 g imidacloprid/plant.
TSWV rating—For TSWV incidence determination, the percentage of plants with TSWV symptoms (chlorosis and stunting) was determined for the four treatments at 21, 29, 38, and 47 days after treatment as in Example 6.
Synergy formula—The Colby formula for proof of synergy was used in Example 7 as in Example 6.

[2] = system: tomato spotted wilt virus (TSWV); assay: Replicated tomato drench trial (Example 6); type: in vivo, tomato (Lycopersicon esculentum MILL.); settings: prothioconazole 0.0084 g ai/plant, imidacloprid 0.01 g/plant; for Percent control of incidence of TSWV in tomatoes: Abbott's formula; for Percent incidence of TSWV in tomatoes: drench
Description: Cultivation—A replicated trial on tomato (Lycopersicon esculentum MILL.) was initiated in Molino, Fla. to determine if drenches of prothioconazole alone and in combination with the insecticide imidacloprid would suppress TSWV in tomato. Tomato plants, cultivar FL 47 were transplanted on April 11 into 4 rows, each 9.1 meters long, 60 plants per plot, with three replications. Treatments were applied, into a shallow bowl dug at the base of each plant, as a drench in 40 ml water per plant (6 days after transplanting) on April 17. Treatments— • Untreated—no in-furrow treatment • Imidacloprid@0.01 g imidacloprid/plant. • Prothioconazole—prothioconazole@0.0084 g active ingredient/plant. • Prothioconazole+Imidacloprid—prothioconazole@0.0084 g active ingredient/plant+imidacloprid@0.01 g imidacloprid/plant. TSWV rating—University researchers recommend buffers in TSWV testing. Therefore, the center two rows (30 plants) per plot were used for virus ratings with the outer two rows acting as buffers. TSWV incidence determinations were made based on the presence or absence of TSWV symptoms (chlorosis and stunting) per plant. The four treatments were rated at 21, 29, and 39 days after treatment. Synergy formula—The Colby formula for proof of synergy was used in Example 6. The percent incidence values were converted to percent control with Abbotts's formula (1-treated/untreated)*100. Percent control values for solo treatment X and solo treatment Y, were entered into the Colby formula. When the value determined from the plots with both treatment X and Y applied together is greater than the value determined by the Colby formula then synergy is indicated. The formula is: X+Y−(X*Y/100).

[3] = system: tomato spotted wilt virus (TSWV); assay: Tobacco drench / broadcast spray trial (Example 8); type: in vivo, tobacco (Nicotiana tabacum); settings: acibenzolar-S-methyl 2.47 g ai/Ha broadcast spray
Description: Cultivation—A trial on tobacco (Nicotiana tabacum) was initiated in Molino, Fla., to see if drenches of prothioconazole alone and in combination with the insecticide imidacloprid could control TSWV in tobacco. Plants of cultivar C-371 Gold were transplanted on April 28 into 9.1 meter plots with three replications. All eight treatments were applied after transplanting on May 1. Foliar treatments were applied as a broadcast spray, while drenches were applied as in Example 6. Acibenzolar-S-methyl is a plant defense activator used to control TSWV in tobacco.
Treatments— • Untreated • Imidacloprid@0.01 g imidacloprid/plant • Imidacloprid@0.015 g Imidacloprid/plant • Prothioconazole@0.0084 g active ingredient/plant • Prothioconazole@0.0084 g active ingredient/plant+Imidacloprid@0.01 g imidacloprid/plant • Prothioconazole@0.0084 g active ingredient/plant+Imidacloprid@0.015 g […] label. • Acibenzolar-S-methyl@2.47 g active ingredient/Ha as a broadcast spray as per label.
TSWV rating—For TSWV incidence determination the percentage of plants with TSWV symptoms (chlorosis and stunting) was determined for the eight treatments as in Example 6.

[4] = 14 days after treatment, prothioconazole 0.0084 g ai/plant, imidacloprid 0.01 g/plant (drench)
[5] = 21 days after treatment, prothioconazole 0.0084 g ai/plant, imidacloprid 0.01 g/plant (drench)
[6] = 38 days after treatment, prothioconazole 0.0084 g ai/plant, imidacloprid 0.01 g/plant (drench)

With `O=[N+]([O-])NC1=NCCN1Cc1ccc(Cl)nc1` [Imidacloprid, imidacloprid] the “Percent control of incidence of TSWV in bell peppers” value (“Percent control … in bell peppers” below) ([1]; 21 days after treatment) was 26.14%, the “Percent incidence TSWV in bell peppers” value ([1]; 21 days after treatment) was 17.8% and the “Percent control … in bell peppers” value ([1]; 29 days after treatment) was 45.84%. The “Percent incidence TSWV in bell peppers” value ([1]; 29 days after treatment) was 25.4%, the “Percent control … in bell peppers” value ([1]; 38 days after treatment) was 25.49% and the “Percent incidence TSWV in bell peppers” value ([1]; 38 days after treatment) was 38.3%. The “Percent control … in bell peppers” value ([1]; 47 days after treatment) was 19.32%, the “Percent incidence TSWV in bell peppers” value ([1]; 47 days after treatment) was 42.6% and the “Increase of TSWV level from 38 DAT to 47 DAT” value ([1]; bell pepper, untreated increased by 1.4 percent) was “roughly 4.5%”. For the same compound, the “Percent control of incidence of TSWV in tomatoes” value (shortened to “Percent control … in tomatoes”) ([2]; 21 days after treatment) was 65.07%, the “Percent incidence of TSWV in tomatoes” value ([2]; 21 days after treatment) was 10.2% and the “Percent control … in tomatoes” value ([2]; 29 days after treatment) was 50.52%. The “Percent incidence of TSWV in tomatoes” value ([2]; 29 days after treatment) was 33.4%, the “Percent control … in tomatoes” value ([2]; 39 days after treatment) was 41.30% and the “Percent incidence of TSWV in tomatoes” value ([2]; 39 days after treatment) was 49.6%. For the same compound, the “Percent incidence TSWV in tobacco” value ([3]; 14 days after treatment, imidacloprid 0.015 g/plant, prothioconazole 0.0084 g ai/plant (drench)) was 23.9%, the “Percent incidence TSWV in tobacco” value [3, 4] was 23.9% and the “Percent incidence TSWV in tobacco” value ([3]; 21 days after treatment, imidacloprid 0.015 g/plant, prothioconazole 0.0084 g ai/plant (drench)) was 25.5%. The “Percent incidence TSWV in tobacco” value [3, 5] was 24.4%, the “Percent incidence TSWV in tobacco” value ([3]; 38 days after treatment, imidacloprid 0.015 g/plant, prothioconazole 0.0084 g ai/plant (drench)) was 45.5% and the “Percent incidence TSWV in tobacco” value [3, 6] was 45.0%.
For `CSC(=O)c1cccc2nnsc12` [acibenzolar-S-methyl], the “Percent incidence TSWV in tobacco” value [3, 4] was 36.7%, the “Percent incidence TSWV in tobacco” value [3, 5] was 46.7% and the “Percent incidence TSWV in tobacco” value [3, 6] was 53.9%.
